Assay results as given in paper PMC10447463, “Data-mining unveils structure–property–activity correlation of viral infectivity enhancing self-assembling peptides” (Nature Communications, 2023).
Where two headings read alike, the source gives them in different places.

Key:
[1] = tested on: HIV-1 infection of TZM-bl cells; assay: HIV-1 infectivity enhancement assay, β-galactosidase luminescence; format: cell-based; details: for infectivity: infectivity class (low / medium / high) of each library peptide, main list in c1-c6, same classes repeated in sub-lists of sequences containing the hydrophobicity/charge patterns P+,H0,P+,H0,P0,H0,P0, P+,H0,P0,H0,P0,H0,P0, P+,H0,P0,H0; for Log10 Inf. rel. to EF-C: log10 of HIV-1 infection of TZM-bl cells relative to EF-C, Fig S15 source data, asymmetric std dev errors
[2] = format: physicochemical; details: ThT fluorescence relative to blank (42.1851851851852 a.u.)
Description: (§1) 4 µL of 1 mg/mL peptide fibrils solution is added to a 20 µL, 50 µM ThT–solution in PBS. The mixture is incubated for 15 min at RT to allow binding of ThT dye with β–sheet rich structures. For reference PBS (4 µL) was added instead of peptide fibril solution. The samples were placed in black UV Star® 384 microliter well–plates (Greiner bio–one). Fluorescence spectra were recorded on an Infinite® M1000 PRO microplate reader (Tecan) at λem = 488 nm upon excitation at λex = 440 nm with 10 nm bandwidths and multiple reads per well (3×3). Measurements were repeated in triplicates and averaged with standard deviation. […] Zeta-Potential. For the determination of the surface charge of aggregated peptides zeta-potential measurements were conducted with a Zetasizer Nano ZS, Malvern Instruments. Unless stated otherwise the peptides were dissolved from DMSO (10 mg/mL) in PBS (pH 7.4) to concentration of 1 mg/mL and incubated for 1d at RT. Just before the measurement the 60 µL of the peptides were further diluted in 600 µL KCl (aq, 1 mM) in a 1 mL disposable folded capillary cells (DTS–1060, Zetasizer Nano series, Malvern). The zeta potential of the peptides was derived from the electrophoretic mobility based on the Smoluchowski formula. All measurements were averaged over two individually performed experiments and conducted in triplicates for each sample. Aggregate analysis. […] Furthermore, fluorescence microscopy was conducted by staining 1 µL preformed fibrils (1 mg/mL) with 9 µL ThT (50 µM). Brightfield microscopy was performed simultaneously to evaluate aggregation also for non ThT-active fibrils. The measurements were performed on a Leica DMi8 microscope with 10x air objective and equipped with a Leica MC170 HD camera with a filter setting λem = 527/30 nm upon excitation at λex = 480/40 nm) and processed with the Leica LASX software. To quantify size and number of microscopic aggregation of particles > 10 µm^2 at least 3 independently measured images were analyzed via the 3D object counter analysis tool of ImageJ, v 1.53f51. Sum–frequency generation. The SFG experiments were carried out with a femtosecond Ti: Sapphire amplified laser system (Spitfire Ace, Spectra–Physics, 800 nm, 40 fs, 1 kHz) with 5 W output power. We used 2 W to pump an optical parametric amplifier (TOPAS, light conversion) with a non–collinear difference frequency generation stage to generate broadband IR pulses. Another 1 W of the laser output passed through an etalon to generate narrowband visible pulses (10 cm^-1). The incident angles of the visible and IR beams were 36° and 41° with respect to the surface normal, respectively. The visible (13 µJ) and IR (5 µJ) pulses were overlapped spatially and temporally at the sample position. Subsequently, the generated SFG pulse was guided into a spectrograph (Acton SP 300i, Princeton Instruments), and detected with an EMCCD (Newton, Andor Technology). To avoid IR absorption of water vapor, we purged N2 for the measurement. All spectra were collected in the ssp (denoting s-, s- and p-polarized SFG, visible and IR, respectively) polarization combination. The spectra were normalized to the non–resonant signal taken from z–cut quartz after subtracting a background spectrum.
(§2) 1. Remarks on experimental parameters and bioinformatic descriptors

[3] = Zeta-potential measurement; format: physicochemical; parameters: Zeta-Potential: unit not given here; details: for Zeta-pot. / mV: zeta potential of peptide, Fig S15 source data
Description: as §1, with “spectrum. […]” for “spectrum.”

[4] = Turbidity, derived count rate of scattered light; format: physicochemical
Description: as §1, with “spectrum. […]” for “spectrum.”
ways to determine turbidity of samples, this can be via transmittance and via scattering. Transmittance […]
as it is an easy and fast method.10,11 However, transmittance contributes not only from µm-sized aggregates but also nm-sized aggregates such as distinct fibrils, which makes hard to distinguish between fibril formation and micrometer sized aggregation. Although dynamic light scattering is a frequently applied method for determination of particle size, it cannot be conducted in solutions with anisotropic aggregates in micrometer size range, since the Stokes-Einstein relation is only applicable for homogeneous […] spherical particles.12 Further models describing scattering intensity and […]

[5] = format: physicochemical; details: STD prep
Description: For ATR FT–IR spectroscopy measurements, 200 µL of the respective 1 mg/mL PNF solution was lyophilized and the resulting powder used for measurement. All spectra were recorded on a Bruker Tensor 27 spectrometer with a diamond crystal as ATR element (PIKE MiracleTM, spectral resolution 2 cm^-1). Every sample was measured with 64 scans. Data were analyzed with OriginLab software and calculation of β–sheet content was conducted according to a previous report. TEM. For TEM measurements 5 µL of PNF fibrils (1 mg/mL) were placed on copper grids coated with carbon and formvar layer (300 mesh, Plano GmbH). After 10 min incubation time, the grids were staining with 4% uranyl acetate solution for 2.5 min and washed with water. Measurements were performed on a Jeol 1400 electron microscope with 120 kV acceleration voltage. CR Assay. For the determination of the amount of peptide monomer converting into nanostructures the amine reactive dye fluorescamine was used analogous to a previous reported protocol. Briefly, 100 µL of the preformed PNF solution was centrifuged in a Vivaspin 500 tube (3 kDa MWCO) to separate fibers from free peptide monomer (16200 x g, 4 °C, 45 min). The filtrate and 100 μL of the non-filtered PNF sample were lyophilized and dissolved in 30 μL DMSO. 10 μL of the filtrate and non-filtered DMSO samples were submitted in a black UV Star® 384 microliter well–plates (Greiner bio–one) and 3 μL of the fluorescamine solution (10 mg/mL, DMSO) was added to measure the fluorescence enhancement. After 20 min of incubation at RT, fluorescence was recorded on an Infinite® M1000 PRO microplate reader (Tecan) at λem = 470 nm upon excitation at λex = 365 nm with 10 nm bandwidths and multiple reads per well (3×3). Measurements were repeated in triplicates and averaged with standard deviation. All values were calculated as n-fold fluorescence enhancement (DMSO only as a reference was set to 1). The conversion rate CR was defined according to the equation Eq. (3).3 CR=100−100×fluorescenceintensityfiltrate/fluorescenceintensityoriginal[%]
as §2
1.1 Experimental parameters
Transmission electron microscopy (TEM) measurements. TEM measurements were used to control if peptides assemble. The assemblies were categorized in non -fibrillar structures (no assembly, […]
grid but only amorphous aggregates. In contrast, peptides defined as fibrillar may also include amorphous structures. Amongst nonfibrillar assemblies also amorphous aggregates are summarized.
Amorphous aggregates are defined as structures with high β-sheet content which lack long-range order, that is crystallinity or fibril formation. It is generally assumed that these structures might be

| Substance | infectivity [1] | Log10 Inf. rel. to EF-C [1] | Zeta-pot. / mV [3] [mV] | further results |
| --- | --- | --- | --- | --- |
| ILKNLSRSRKIKIQINMWQ [TM92] | medium | -0.4939 | 19.2 | Log10 of Rel to EFC (Feb2021) ([1]; Feb2021, Log10 of infectivity relative to EF-C): -0.4939; Rel-to EFC (Feb-2021) ([1]; Feb2021, n-fold enhancement relative to EF-C): 0.3207; Tht rel to blank (42.1851851851852) [2]: 3.339; Zeta category ( +1 = if > 4 mV;-1 = if < -4 mV; 0 = -4mV to 4 mV) ([3]; category from zeta potential): 1 (+1 = if > 4 mV); Zeta Pot. / mV ([3]; mean, Std Zeta in next column): 19.2 mV; Zeta Count Rate Category ([4]; category 1 or 0 from count rate, key not given): 1; Zeta Count Rate / kcps ([4]; derived count rate of scattered light, mean, std deviation in next column): 306.5 kcps |
| KVKGVGK [CN27] | low | -1.587 | -12.8 | – |
| KIRGKFEKED [CN30] | low | -1.2355 | -12.7 | – |
| FKFDKFKFDK [CN26] | low | -1.334 | -12.7 | – |
| TKTLTKTL [CN25] | low | -1.671 | -25.1 | – |
| KNDKND [CN5] | low | -1.978 | -15 | – |
| MKFM [CN32] | low | -1.756 | -16 | – |
| EFEFQFNMWQ [JH1] | – | – | – | TEM: 1= fibrils, 0= aggregates (micelle), 0.5 = aggregates and fibrils, -1 = nothing obersved, STD prep [5]: 1; TEM: 1= fibrils, 0= aggregates (micelle), 0.5 = aggregates and fibrils, -1 = nothing obersved, STD prep ([5]; TEM): 1; Zeta category ( +1 = if > 4 mV;-1 = if < -4 mV; 0 = -4mV to 4 mV) [3]: 0 (0 = -4mV to 4 mV); Zeta category ( +1 = if > 4 mV;-1 = if < -4 mV; 0 = -4mV to 4 mV) ([3]; category derived from the zeta potential): 0 (0 = -4mV to 4 mV) |
| Lysozyme | – | – | – | Zeta Potential ([3]; mean of n = 3): 4.807; Zeta-Potential ([3]; replicate 1): 4.05; Zeta-Potential ([3]; replicate 2): 5.03; Zeta-Potential ([3]; replicate 3): 5.34; Count Rate ([4]; derived count rate of scattered light, mean of n = 3): 217.9 kcps; Count Rate ([4]; derived count rate of scattered light, replicate 1): 304.4 kcps; Count Rate ([4]; derived count rate of scattered light, replicate 2): 195.7 kcps; Count Rate ([4]; derived count rate of scattered light, replicate 3): 153.6 kcps |
| EFEFQF [KB11] | low | -2.485 | -24.5 | – |
| PPFHPPPFHP [CN22] | low | -1.751 | -15.8 | – |
| HGEHGE [CN6] | low | -2.193 | -12.6 | – |
| HGEHGEHGE [CN7] | low | -1.72 | -24.2 | – |
| KYKGAIIGNIK [CN19] | low | -2.508 | -9.14 | – |
| CKFC [CN33] | low | -1.959 | -19.89 | – |
